The record followed here is patent US8415359B2, “Phenylpyrrole derivative” (Daiichi Sankyo Company, Limited, priority 2008, dated 2013).

Structures are written as SMILES.

The test addresses T1, human pancreatic GK (human glucokinase variant 1, GST-fused protein) (Homo sapiens, UniProt P35557).
T1 construct: made in house; host or cells: Escherichia coli (such as BL21 or JM109)
T1 sequence (P35557 1-465): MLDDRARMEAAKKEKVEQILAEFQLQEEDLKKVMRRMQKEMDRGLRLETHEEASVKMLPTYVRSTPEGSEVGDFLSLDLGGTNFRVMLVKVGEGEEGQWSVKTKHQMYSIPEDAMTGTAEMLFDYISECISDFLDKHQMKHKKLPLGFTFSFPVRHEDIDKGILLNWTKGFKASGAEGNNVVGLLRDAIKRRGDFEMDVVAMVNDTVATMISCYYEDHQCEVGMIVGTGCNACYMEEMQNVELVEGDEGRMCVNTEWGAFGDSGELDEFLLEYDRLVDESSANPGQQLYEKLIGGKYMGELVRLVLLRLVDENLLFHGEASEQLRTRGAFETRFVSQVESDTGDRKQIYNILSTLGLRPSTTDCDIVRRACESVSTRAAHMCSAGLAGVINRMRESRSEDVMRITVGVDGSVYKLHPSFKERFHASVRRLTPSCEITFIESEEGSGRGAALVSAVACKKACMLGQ
Kind of test: GK activity test (GK activation rate). Type of test: biochemical. To be noted: test compound 1 μM; glucose 5 mM; 30 min at room temperature; absorbance at 340 nm with test compound / without test compound. On the procedure:
cDNA encoding human pancreatic GK polypeptide (GenBank Accession No. NM_000162, human glucokinase variant 1) was cloned from a human cDNA library by polymerase chain reaction (PCR), and introduced into a glutathione S-transferase (GST)-fused protein expression vector (GEX4T, GE Healthcare Bioscience). The vector was introduced into Escherichia coli (such as BL21 or JM109, Invitrogen), and the transformed E. coli was cultured overnight at 37° C. followed by recovery of the cells. After freezing and thawing the recovered cells, the cells were suspended in phosphate buffer containing Triton-X at a final concentration of 1% followed by disrupting the cells with an ultrasonic homogenizer. The supernatant obtained by low-speed centrifugation treatment of the homogenate (10,000×g, 30 minutes) was further subjected to high-speed centrifugation (100,000×g, 10 minutes) followed by recovering the supernatant and purifying the fused protein using a GST fused protein purification system (Bulk GST Purification Module, GE Healthcare Bioscience). The GK fused protein was divided into smaller aliquots and stored at −80° C.
GK activity was measured using the GK purified in (1) above. More specifically, an enzyme solution was prepared by adding the purified GK of (1) above and glucose-6-phosphate dehydrogenase (Sigma) to solution 1 of a glucose assay kit (D-Glucose UV Method, Roche Diagnostics). The enzyme solution, a test compound diluent and glucose (final concentration: 5 mM) were mixed in a 96-well ELISA plate, and allowed to react for 30 minutes at room temperature. Following completion of the reaction, absorbance at a wavelength of 340 nm was measured using SpectraMax Plus (Molecular Probe). Furthermore, unreacted (when glucose was not added) absorbance was used for the background.
GK activation rates were indicated with values represented by the following numerical formula: (absorbance after reacting for 30 minutes when test compound added)/(absorbance after reacting for 30 minutes when test compound not added).

Regarding `C[C@@H](CO)Oc1cc(Oc2ccc(S(C)(=O)=O)cc2)cc(-c2ccc(C3=NCCO3)[nH]2)c1` [Example 21, (2S)-2-{3-[5-(4,5-Dihydro-1,3-oxazol-2-yl)-1H-pyrrol-2-yl]-5-[4-(methylsulfonyl)phenoxy]phenoxy}propan-1-ol], the “GK Activation Rate” value turned out to be 2.0.
For the compound `CNC(=O)c1ccc(Oc2cc(O[C@@H](C)COC)cc(-c3ccc(C4=NC[C@H](CO)O4)[nH]3)c2)cn1` [Example 126, 5-(3-{5-[(5R)-5-(Hydroxymethyl)-4,5-dihydro-1,3-oxazol-2-yl]-1H-pyrrol-2-yl}-5-[(1S)-2-methoxy-1-methylethoxy]phenoxy)-N-methylpyridine-2-carboxamide], the “GK Activation Rate” value amounted to 2.6.
On to `COC[C@H](C)Oc1cc(Oc2ccc(S(C)(=O)=O)nc2)cc(-c2ccc(C3=NC[C@H](CO)O3)[nH]2)c1` [Example 82, {(5R)-2-[5-(3-[(1S)-2-Methoxy-1-methylethoxy]-5-{[6-(methylsulfonyl)pyridin-3-yl]oxy}phenyl)-1H-pyrrol-2-yl]-4,5-dihydro-1,3-oxazol-5-yl}methanol], for which the “GK Activation Rate” value worked out at 2.7.
With `COC[C@H](C)Oc1cc(Oc2ncc(C(=O)N3CCC3)cc2Cl)cc(-c2ccc(-c3nccs3)[nH]2)c1` [Example 60, 5-(Azetidin-1-ylcarbonyl)-3-chloro-2-{3-[(1S)-2-methoxy-1-methylethoxy]-5-[5-(1,3-thiazol-2-yl)-1,1-pyrrol-2-yl]phenoxy}pyridine], the “GK Activation Rate” value is listed as 2.0.
The same measure for `COC[C@H](C)Oc1cc(Oc2ccc(S(C)(=O)=O)cc2)cc(-c2ccc(C3=NC[C@@H](C)O3)[nH]2)c1` [Example 33, (5R)-2-(5-{3-[(1S)-2-Methoxy-1-methylethoxy]-5-[4-(methylsulfonyl)phenoxy]phenyl}-1H-pyrrol-2-yl)-5-methyl-4,5-dihydro-1,3-oxazole]: 1.7; for `C[C@@H]1COC(c2ccc(-c3cc(Oc4ccc(S(C)(=O)=O)nc4)cc(O[C@@H](C)CO)c3)[nH]2)=N1` [Example 84, (2S)-2-(3-{5-[(4R)-4-Methyl-4,5-dihydro-1,3-oxazol-2-yl]-1H-pyrrol-2-yl}-5-{-[6-(methylsulfonyl)pyridin-3-yl]oxy}phenoxy)propan-1-ol]: 2.7; for `COC[C@H](C)Oc1cc(Oc2ccc(S(C)(=O)=O)nc2)cc(-c2ccc(C3=N[C@H](CO)CO3)[nH]2)c1` [Example 86, {(4R)-2-[5-(3-[(1S)-2-Methoxy-1-methylethoxy]-5-{[6-(methylsulfonyl)pyridin-3-yl]oxy}phenyl)-1H-pyrrol-2-yl]-4,5-dihydro-1,3-oxazol-4-yl}methanol]: 2.5.
In the case of `C[C@H]1CN=C(c2ccc(-c3cc(Oc4ccc(S(C)(=O)=O)nc4)cc(O[C@@H](C)CO)c3)[nH]2)O1` [Example 77, (2S)-2-(3-{5-[(5S)-5-Methyl-4,5-dihydro-1,3-oxazol-2-yl]-1H-pyrrol-2-yl}-5-{[6-(methylsulfonyl)pyridin-3-yl]oxy}phenoxy)propan-1-ol], the “GK Activation Rate” value came out at 2.6.
For `COC[C@H](C)Oc1cc(Oc2ccc(S(C)(=O)=O)cc2)cc(-c2ccc(-c3ncc(C)s3)[nH]2)c1` [Example 3, 2-(5-{3-[(1S)-2-Methoxy-1-methylethoxy]-5-[4-(methylsulfonyl)phenoxy]phenyl}-1H-pyrrol-2-yl)-5-methyl-1,3-thiazole], the “GK Activation Rate” value stood at 1.9.
For `C[C@H]1CN=C(c2ccc(-c3cc(Oc4ccc(C(=O)N5CCC5)cc4F)cc(O[C@@H](C)CO)c3)[nH]2)O1` [Example 70, (2S)-2-(3-[4-(Azetidin-1-ylcarbonyl)-2-fluorophenoxy]-5-{5-[(5S)-5-methyl-4,5-dihydro-1,3-oxazol-2-yl}-1H-pyrrol-2-yl]phenoxy)propan-1-ol], the “GK Activation Rate” value is on record as 1.9.
Take `COC[C@H](C)Oc1cc(Oc2ccc(S(C)(=O)=O)nc2)cc(-c2ccc(C3=N[C@H]([C@H](C)O)CO3)[nH]2)c1` [Example 93, (1S)-1-{(4S)-2-[5-(3-[(1S)-2-Methoxy-1-methylethoxy]-5-{[6-(methylsulfonyl)pyridin-3-yl]oxy}phenyl)-1H-pyrrol-2-yl]-4,5-dihydro-1,3-oxazol-4-yl}ethanol]: the “GK Activation Rate” value was 2.4.
With `COC[C@H](C)Oc1cc(Oc2ccc(C(=O)N3CCC3)cc2F)cc(-c2ccc(C3=NCCO3)[nH]2)c1` [Example 68, 2-(5-{3-[4-(Azetidin-1-ylcarbonyl)-2-fluorophenoxy]-5-[(1S)-2-methoxy-1-methylethoxy]phenyl}-1H-pyrrol-2-yl)-4,5-dihydro-1,3-oxazole], the “GK Activation Rate” value came to 2.0.
Turning to `COC[C@H](C)Oc1cc(Oc2ccc(S(C)(=O)=O)nc2)cc(-c2ccc(C3=N[C@H]([C@@H](C)O)CO3)[nH]2)c1` [Example 95, (1R)-1-{(4S)-2-[5-(3-[(1S)-2-Methoxy-1-methylethoxy]-5-{[6-(methylsulfonyl)pyridin-3-yl]oxy}phenyl)-1H-pyrrol-2-yl]-4,5-dihydro-1,3-oxazol-4-yl}ethanol], the “GK Activation Rate” value was 2.5.
As for `COC[C@H](C)Oc1cc(Oc2cnc(C(=O)N3CCN(C)CC3)cn2)cc(-c2ccc(-c3nccs3)[nH]2)c1` [Example 64, 2-{3-[(1S)-2-Methoxy-1-methylethoxy]-5-[5-(1,3-thiazol-2-yl)-1H-pyrrol-2-yl]phenoxy}-5-[(4-methylpiperazin-1-yl)carbonyl]pyrazine], the “GK Activation Rate” value stood at 1.9.
As for `COC[C@H](C)Oc1cc(Oc2ccc(S(C)(=O)=O)cc2)cc(-c2ccc(-c3nccs3)[nH]2)c1` [Example 1, 2-(5-{3-[(1S)-2-Methoxy-1-methylethoxy]-5-[4-(methylsulfonyl)phenoxy]phenyl}-1H-pyrrol-2-yl)-1,3-thiazole], the “GK Activation Rate” value is given as 2.0.
Take `CNC(=O)c1ccc(Oc2cc(O[C@@H](C)CO)cc(-c3ccc(C4=NC[C@H](C)O4)[nH]3)c2)cn1` [Example 123, 5-(3-[(1S)-2-Hydroxy-1-methylethoxy]-5-{5-[(5S)-5-methyl-4,5-dihydro-1,3-oxazol-2-yl]-1H-pyrrol-2-yl}phenoxy)-N-methylpyridine-2-carboxamide]: the “GK Activation Rate” value worked out at 2.6.
Turning to `COC[C@H](C)Oc1cc(Oc2cnc(S(C)(=O)=O)cn2)cc(-c2ccc(C3=N[C@H]([C@@H](C)O)CO3)[nH]2)c1` [Example 114, (1R)-1-{(4S)-2-{[5-(3-[(2S)-1-Methoxypropan-2-yl]oxy}-5-{[5-(methylsulfonyl)pyrazin-2-yl]oxy}phenyl)-1H-pyrrol-2-yl]-4,5-dihydro-1,3-oxazol-4-yl}ethanol], the “GK Activation Rate” value is 2.2.
Turning to `C[C@@H]1COC(c2ccc(-c3cc(Oc4cnc(S(C)(=O)=O)cn4)cc(O[C@@H](C)CO)c3)[nH]2)=N1` [Example 107, (2S)-2-(3-{5-[(4R)-4-Methyl-4,5-dihydro-1,3-oxazol-2-yl]-1H-pyrrol-2-yl}-5-{[5-(methylsulfonyl)pyrazin-2-yl]oxy}phenoxy)propan-1-ol], the “GK Activation Rate” value is given as 2.0.
On to `COC[C@H](C)Oc1cc(Oc2ccc(S(C)(=O)=O)cc2)cc(-c2ccc(C3=NC[C@H](C)O3)[nH]2)c1` [Example 31, (5S)-2-(5-{3-[(1S)-2-Methoxy-1-methylethoxy]-5-[4-(methylsulfonyl)phenoxy]phenyl}-1H-pyrrol-2-yl)-5-methyl-4,5-dihydro-1,3-oxazole], for which the “GK Activation Rate” value turned out to be 2.0.
As to `COC[C@H](C)Oc1cc(Oc2ncc(C(=O)N3CCC3)cc2Cl)cc(-c2ccc(C3=NCCO3)[nH]2)c1` [Example 73, 5-(Azetidin-1-ylcarbonyl)-3-chloro-2-{3-[5-(4,5-dihydro-1,3-oxazol-2-yl)-1,4-pyrrol-2-yl]-5-[(1S)-2-methoxy-1-methylethoxy]phenoxyl}pyridine], the “GK Activation Rate” value amounted to 2.0.
Turning to `COC[C@H](C)Oc1cc(Oc2ncc(C(=O)N3CCC3)cc2Cl)cc(-c2ccc(C3=NC[C@H](C)O3)[nH]2)c1` [Example 74, 5-(Azetidin-1-ylcarbonyl)-3-chloro-2-(3-[(1S)-2-methoxy-1-methylethoxy]-5-{5-[(5S)-5-methyl-4,5-dihydro-1,3-oxazol-2-yl]-1H-pyrrol-2-yl}phenoxy)pyridine], the “GK Activation Rate” value amounted to 2.0.
